{
  "source": "paper PMC5218480",
  "about": "(PLoS ONE, 2017)",
  "tested_on": "MV-4-11 cells",
  "experiment": "Gene expression microarray analysis (Affymetrix PrimeView) and GSEA",
  "assay_type": "cell-based, human",
  "parameters": "RFU PODN (11730768_x_at) / Fold change /veh PODN (11730768_x_at) / RFU LINC00158 (11744669_a_at) / Fold change /veh LINC00158 (11744669_a_at) / RFU DUSP10 (11751237_a_at) / Fold change /veh DUSP10 (11751237_a_at) / RFU ID3 (11757404_x_at) / Fold change /veh ID3 (11757404_x_at) / RFU PLEKHG5 (11737974_s_at) / Fold change /veh PLEKHG5 (11737974_s_at) / RFU LRRC4B (11730491_at) / Fold change /veh LRRC4B (11730491_at) / RFU GIMAP4 (11747438_a_at) / Fold change /veh GIMAP4 (11747438_a_at) / RFU KRT8 (11758183_x_at) / Fold change /veh KRT8 (11758183_x_at) / RFU CNN1 (11734310_a_at) / Fold change /veh CNN1 (11734310_a_at) / RFU VPS37D (11726825_at) / Fold change /veh VPS37D (11726825_at) / RFU C10orf10 (11716522_x_at) / Fold change /veh C10orf10 (11716522_x_at) / RFU KIR2DL2 /// KIR2DL4 /// KIR2DL5A /// KIR2DL5B /// KIR2DS1 /// KIR2DS2 /// KIR2DS3 /// KIR2DS4 /// KIR3DL3 /// KIR3DL3 /// KIR3DS1 (11738374_at) / Fold change /veh KIR2DL2 /// KIR2DL4 /// KIR2DL5A /// KIR2DL5B /// KIR2DS1 /// KIR2DS2 /// KIR2DS3 /// KIR2DS4 /// KIR3DL3 /// KIR3DL3 /// KIR3DS1 (11738374_at) / RFU C1QL1 (11718748_at) / Fold change /veh C1QL1 (11718748_at) / RFU TMPRSS4 (11747572_a_at) / Fold change /veh TMPRSS4 (11747572_a_at) / RFU HAMP (11756126_x_at) / Fold change /veh HAMP (11756126_x_at) / RFU RNFT2 (11725882_a_at) / Fold change /veh RNFT2 (11725882_a_at) / RFU NR4A2 (11747474_a_at) / Fold change /veh NR4A2 (11747474_a_at) / RFU ABCC12 (11746883_a_at) / Fold change /veh ABCC12 (11746883_a_at) / RFU TMEM136 (11760407_x_at) / Fold change /veh TMEM136 (11760407_x_at) / RFU CLDN22 /// WWC2 (11732394_at) / Fold change /veh CLDN22 /// WWC2 (11732394_at) / RFU HLA-DPB1 (11760878_x_at) / Fold change /veh HLA-DPB1 (11760878_x_at) / RFU SPINT1 (11716480_a_at) / Fold change /veh SPINT1 (11716480_a_at) / RFU GAP43 (11754022_s_at) / Fold change /veh GAP43 (11754022_s_at) / RFU A4GNT (11735810_at) / Fold change /veh A4GNT (11735810_at) / RFU PRB3 (11715151_x_at) / Fold change /veh PRB3 (11715151_x_at) / RFU TUBB4B (11761932_at) / Fold change /veh TUBB4B (11761932_at) / RFU CAPN14 (11732068_a_at) / Fold change /veh CAPN14 (11732068_a_at) / RFU TMCC2 (11721928_a_at) / Fold change /veh TMCC2 (11721928_a_at) / RFU IRGQ (11745062_a_at) / Fold change /veh IRGQ (11745062_a_at) / RFU FAM174B (11720279_a_at) / Fold change /veh FAM174B (11720279_a_at) / RFU TMPRSS4 (11748680_a_at) / Fold change /veh TMPRSS4 (11748680_a_at) / RFU FAM212B (11763350_a_at) / Fold change /veh FAM212B (11763350_a_at) / RFU PLEKHG5 (11743358_a_at) / Fold change /veh PLEKHG5 (11743358_a_at) / RFU ZSCAN30 (11745921_a_at) / Fold change /veh ZSCAN30 (11745921_a_at) / RFU CMKLR1 (11741424_a_at) / Fold change /veh CMKLR1 (11741424_a_at) / RFU LOC101060620 /// MAPK8IP1 (11723275_at) / Fold change /veh LOC101060620 /// MAPK8IP1 (11723275_at) / RFU SPTSSB (11747773_x_at) / Fold change /veh SPTSSB (11747773_x_at) / RFU PRSS12 (11739890_at) / Fold change /veh PRSS12 (11739890_at) / RFU BIN1 (11741810_x_at) / Fold change /veh BIN1 (11741810_x_at) / RFU WNT11 (11732464_a_at) / Fold change /veh WNT11 (11732464_a_at) / RFU C10orf10 (11716521_a_at) / Fold change /veh C10orf10 (11716521_a_at) / RFU C5orf56 (11738089_at) / Fold change /veh C5orf56 (11738089_at) / RFU CYB561 (11721691_x_at) / Fold change /veh CYB561 (11721691_x_at) / RFU ANKRD19P (11752326_a_at) / Fold change /veh ANKRD19P (11752326_a_at) / RFU OR2T12 /// OR2T33 /// OR2T8 (11738714_s_at) / Fold change /veh OR2T12 /// OR2T33 /// OR2T8 (11738714_s_at) / RFU VCAN (11748164_a_at) / Fold change /veh VCAN (11748164_a_at) / RFU JSRP1 (11732532_at) / Fold change /veh JSRP1 (11732532_at) / RFU KRTAP10-11 (11738290_x_at) / Fold change /veh KRTAP10-11 (11738290_x_at) / RFU MYO3A (11730013_a_at) / Fold change /veh MYO3A (11730013_a_at) / RFU EBF3 (11725865_a_at) / Fold change /veh EBF3 (11725865_a_at) / RFU CAMK2N1 (11719241_x_at) / Fold change /veh CAMK2N1 (11719241_x_at) / RFU C5orf56 (11738088_a_at) / Fold change /veh C5orf56 (11738088_a_at) / RFU OLFML3 (11715873_a_at) / Fold change /veh OLFML3 (11715873_a_at) / RFU LOC100653217 /// NTM (11731650_a_at) / Fold change /veh LOC100653217 /// NTM (11731650_a_at) / RFU MAPK11 (11762145_a_at) / Fold change /veh MAPK11 (11762145_a_at) / RFU FIZ1 (11724087_x_at) / Fold change /veh FIZ1 (11724087_x_at) / RFU OASL (11726364_x_at) / Fold change /veh OASL (11726364_x_at) / RFU SOX15 (11748057_x_at) / Fold change /veh SOX15 (11748057_x_at) / RFU CD79A (11719716_a_at) / Fold change /veh CD79A (11719716_a_at) / RFU HIST1H1D (11736915_at) / Fold change /veh HIST1H1D (11736915_at) / RFU CASKIN2 (11723855_a_at) / Fold change /veh CASKIN2 (11723855_a_at) / RFU LOC730098 (11760151_x_at) / Fold change /veh LOC730098 (11760151_x_at) / RFU OR4N2 (11742367_at) / Fold change /veh OR4N2 (11742367_at) / RFU PRRT2 (11749266_a_at) / Fold change /veh PRRT2 (11749266_a_at) / RFU SNX32 (11753110_a_at) / Fold change /veh SNX32 (11753110_a_at) / RFU CDHR5 (11726645_a_at) / Fold change /veh CDHR5 (11726645_a_at) / RFU RCAN1 (11760418_a_at) / Fold change /veh RCAN1 (11760418_a_at) / RFU FAM167A (11723789_a_at) / Fold change /veh FAM167A (11723789_a_at) / RFU FAM26E (11764081_at) / Fold change /veh FAM26E (11764081_at) / RFU ISYNA1 (11749810_s_at) / Fold change /veh ISYNA1 (11749810_s_at) / RFU ACY1 (11761880_at) / Fold change /veh ACY1 (11761880_at) / RFU 11764098_at / Fold change /veh 11764098_at / RFU SAMD14 (11745864_x_at) / Fold change /veh SAMD14 (11745864_x_at) / RFU NPB (11741838_a_at) / Fold change /veh NPB (11741838_a_at) / RFU TMPRSS6 (11731388_a_at) / Fold change /veh TMPRSS6 (11731388_a_at) / RFU KRTAP10-2 (11738614_at) / Fold change /veh KRTAP10-2 (11738614_at) / RFU ARHGAP8 /// PRR5-ARHGAP8 (11727945_x_at) / Fold change /veh ARHGAP8 /// PRR5-ARHGAP8 (11727945_x_at) / RFU KRTAP5-7 /// NADSYN1 (11734609_at) / Fold change /veh KRTAP5-7 /// NADSYN1 (11734609_at) / RFU RASL12 (11751679_a_at) / Fold change /veh RASL12 (11751679_a_at) / RFU CDKN2B (11736163_a_at) / Fold change /veh CDKN2B (11736163_a_at) / RFU PRF1 (11729649_at) / Fold change /veh PRF1 (11729649_at) / RFU, ZNF638 /// ZNF638-IT1 / Fold change vs veh, ZNF638 /// ZNF638-IT1 / RFU, PANK3 / Fold change vs veh, PANK3 / RFU, SH3YL1 / Fold change vs veh, SH3YL1 / RFU, ZEB2 / Fold change vs veh, ZEB2 / RFU, NRIP1 / Fold change vs veh, NRIP1 / RFU, PTTG1IP / Fold change vs veh, PTTG1IP / RFU, CAPN2 / Fold change vs veh, CAPN2 / RFU, MED14 / Fold change vs veh, MED14 / RFU, SNORA58 / Fold change vs veh, SNORA58 / RFU, C1orf63 / Fold change vs veh, C1orf63 / RFU, LRRFIP1 / Fold change vs veh, LRRFIP1 / RFU, NDUFAF7 / Fold change vs veh, NDUFAF7 / RFU, SLC12A2 / Fold change vs veh, SLC12A2 / RFU, IBTK / Fold change vs veh, IBTK / RFU, ESF1 / Fold change vs veh, ESF1 / Fold change vs veh, TMEM50B / RFU, TAOK1 / Fold change vs veh, TAOK1 / RFU, ACBD3 / Fold change vs veh, ACBD3 / RFU, TMA16 / Fold change vs veh, TMA16 / RFU, RWDD3 / Fold change vs veh, RWDD3 / RFU, BCAT1 / Fold change vs veh, BCAT1 / RFU, EDEM3 / Fold change vs veh, EDEM3 / RFU, TMEM33 / Fold change vs veh, TMEM33 / RFU, WDR75 / Fold change vs veh, WDR75 / RFU, AHCTF1 / Fold change vs veh, AHCTF1 / RFU, TFRC / Fold change vs veh, TFRC / RFU, ZDHHC17 / Fold change vs veh, ZDHHC17 / RFU, NOM1 / Fold change vs veh, NOM1 / RFU, ARL8B / Fold change vs veh, ARL8B / RFU, ZBTB11 / Fold change vs veh, ZBTB11 / RFU, TAMM41 / Fold change vs veh, TAMM41 / RFU, KIAA1704 /// LOC100996395 / Fold change vs veh, KIAA1704 /// LOC100996395 / RFU, ING1 / Fold change vs veh, ING1 / RFU, TRMT61B / Fold change vs veh, TRMT61B / RFU, FUBP3 / Fold change vs veh, FUBP3 / RFU, TP53 / Fold change vs veh, TP53 / RFU, TNKS2 / Fold change vs veh, TNKS2 / RFU, ZFP14 / Fold change vs veh, ZFP14 / RFU, ACTR2 / Fold change vs veh, ACTR2 / RFU, PPP3R1 / Fold change vs veh, PPP3R1 / RFU, PIK3R1 / Fold change vs veh, PIK3R1 / RFU, HNRNPA1 / Fold change vs veh, HNRNPA1 / RFU, RNF170 / Fold change vs veh, RNF170 / RFU, ZNF28 / Fold change vs veh, ZNF28 / RFU, RNGTT / Fold change vs veh, RNGTT / RFU, OGT / Fold change vs veh, OGT / RFU, BRD1 / Fold change vs veh, BRD1 / RFU, MARS / Fold change vs veh, MARS / RFU, ZNF655 / Fold change vs veh, ZNF655 / RFU, FAHD1 / Fold change vs veh, FAHD1 / RFU, BDP1 / Fold change vs veh, BDP1 / RFU, LRRCC1 / Fold change vs veh, LRRCC1 / RFU, ARID1A / Fold change vs veh, ARID1A / RFU, ZNF146 / Fold change vs veh, ZNF146 / RFU, ZNF330 / Fold change vs veh, ZNF330 / RFU, GPN3 / Fold change vs veh, GPN3 / RFU, C9orf123 / Fold change vs veh, C9orf123 / RFU, N4BP2L2 / Fold change vs veh, N4BP2L2 / RFU, ARFIP1 / Fold change vs veh, ARFIP1 / RFU, FAM179B / Fold change vs veh, FAM179B / RFU, BCL10 / Fold change vs veh, BCL10 / RFU, UHRF1BP1L / Fold change vs veh, UHRF1BP1L / RFU, BET1 / Fold change vs veh, BET1 / RFU, CNOT2 / Fold change vs veh, CNOT2 / RFU, ZNF268 / Fold change vs veh, ZNF268 / Fold change vs veh, ZNF507 / RFU, DGCR2 / Fold change vs veh, DGCR2 / RFU, WDSUB1 / Fold change vs veh, WDSUB1 / Fold change vs veh, HSP90B1 /// MIR3652 / RFU, ADSS / Fold change vs veh, ADSS / RFU, GK / Fold change vs veh, GK / RFU, ZNF148 / Fold change vs veh, ZNF148 / RFU, TAF9 / Fold change vs veh, TAF9 / RFU, SLC1A5 / Fold change vs veh, SLC1A5 / RFU, SLMO2 / Fold change vs veh, SLMO2 / RFU, ABCC4 / Fold change vs veh, ABCC4 / RFU, LOC101060439 /// RAP1B / Fold change vs veh, LOC101060439 /// RAP1B / RFU, RFX7 / Fold change vs veh, RFX7 / RFU, GTPBP10 / Fold change vs veh, GTPBP10 / RFU, CNEP1R1 / Fold change vs veh, CNEP1R1 / RFU, BIVM-ERCC5 /// ERCC5 / Fold change vs veh, BIVM-ERCC5 /// ERCC5 / RFU, ILF3 / Fold change vs veh, ILF3 / RFU 11762660_at / Fold change /veh 11762660_at / RFU VCAN (11757783_s_at) / Fold change /veh VCAN (11757783_s_at) / RFU DDX43 (11728927_at) / Fold change /veh DDX43 (11728927_at) / RFU KRT8 (11758188_x_at) / Fold change /veh KRT8 (11758188_x_at) / RFU NKD1 (11759106_at) / Fold change /veh NKD1 (11759106_at) / RFU SRD5A1 (11742802_a_at) / Fold change /veh SRD5A1 (11742802_a_at) / RFU TPSAB1 /// TPSB2 (11721975_s_at) / Fold change /veh TPSAB1 /// TPSB2 (11721975_s_at) / RFU GSTM3 (11746129_a_at) / Fold change /veh GSTM3 (11746129_a_at) / RFU IL23R (11737362_x_at) / Fold change /veh IL23R (11737362_x_at) / RFU TMEM51 (11727254_a_at) / Fold change /veh TMEM51 (11727254_a_at) / RFU PIWIL2 (11732686_x_at) / Fold change /veh PIWIL2 (11732686_x_at) / RFU ORM1 (11744905_x_at) / Fold change /veh ORM1 (11744905_x_at) / RFU CCDC152 (11743942_at) / Fold change /veh CCDC152 (11743942_at) / RFU ECM1 (11717891_a_at) / Fold change /veh ECM1 (11717891_a_at) / RFU IL23R (11748794_a_at) / Fold change /veh IL23R (11748794_a_at) / RFU TNFAIP8L3 (11732012_x_at) / Fold change /veh TNFAIP8L3 (11732012_x_at) / RFU MBOAT4 (11741988_at) / Fold change /veh MBOAT4 (11741988_at) / RFU 11764193_at / Fold change /veh 11764193_at / RFU TMEM53 (11763286_at) / Fold change /veh TMEM53 (11763286_at) / RFU MAGEB2 (11727129_at) / Fold change /veh MAGEB2 (11727129_at) / RFU TMEM200A (11744735_a_at) / Fold change /veh TMEM200A (11744735_a_at) / RFU CCDC152 (11751479_a_at) / Fold change /veh CCDC152 (11751479_a_at) / RFU FAM211A (11726209_a_at) / Fold change /veh FAM211A (11726209_a_at) / RFU RGS16 (11746705_a_at) / Fold change /veh RGS16 (11746705_a_at) / RFU VCAN (11755009_s_at) / Fold change /veh VCAN (11755009_s_at) / RFU RHOB (11743442_s_at) / Fold change /veh RHOB (11743442_s_at) / RFU RGS16 (11720943_a_at) / Fold change /veh RGS16 (11720943_a_at) / RFU RGS16 (11720944_at) / Fold change /veh RGS16 (11720944_at) / RFU, VPS4B / Fold change vs veh, VPS4B / RFU, CREB1 / Fold change vs veh, CREB1 / RFU, DNAJC13 / Fold change vs veh, DNAJC13 / RFU, GNAQ / Fold change vs veh, GNAQ / RFU, CDK5R1 / Fold change vs veh, CDK5R1 / RFU, ZRANB3 / Fold change vs veh, ZRANB3 / RFU, CUL4A / Fold change vs veh, CUL4A / RFU, CCNY / Fold change vs veh, CCNY / RFU, UFL1 / Fold change vs veh, UFL1 / RFU, COG3 / Fold change vs veh, COG3 / RFU, DIAPH2 / Fold change vs veh, DIAPH2 / RFU, SKA2 / Fold change vs veh, SKA2 / RFU, AFF3 / Fold change vs veh, AFF3 / RFU, LMF1 / Fold change vs veh, LMF1 / RFU, IPO11 / Fold change vs veh, IPO11 / RFU, DFFB / Fold change vs veh, DFFB / RFU, FOXP1 / Fold change vs veh, FOXP1 / RFU, CARD8 / Fold change vs veh, CARD8 / RFU, STRN3 / Fold change vs veh, STRN3 / RFU, ADK / Fold change vs veh, ADK / RFU, RASSF2 / Fold change vs veh, RASSF2 / RFU, WIPF1 / Fold change vs veh, WIPF1 / RFU, LARP1B / Fold change vs veh, LARP1B / RFU, RASA1 / Fold change vs veh, RASA1 / RFU, RB1 / Fold change vs veh, RB1 / RFU, PPFIA1 / Fold change vs veh, PPFIA1 / RFU, MAT2A / Fold change vs veh, MAT2A / RFU, CCT5 / Fold change vs veh, CCT5 / RFU, WDR92 / Fold change vs veh, WDR92 / RFU, CUX1 / Fold change vs veh, CUX1 / RFU, TTC7A / Fold change vs veh, TTC7A / RFU, TMEM135 / Fold change vs veh, TMEM135 / RFU, DEPTOR / Fold change vs veh, DEPTOR / RFU, CPM / Fold change vs veh, CPM / RFU, DNAJB6 / Fold change vs veh, DNAJB6 / RFU, CACNA2D3 / Fold change vs veh, CACNA2D3 / RFU, DTX4 / Fold change vs veh, DTX4 / RFU, TFCP2 / Fold change vs veh, TFCP2 / RFU, GMCL1 /// GMCL1P1 / Fold change vs veh, GMCL1 /// GMCL1P1 / RFU, AEBP2 / Fold change vs veh, AEBP2 / RFU, SNHG1 /// SNORD22 /// SNORD25 /// SNORD26 /// SNORD27 /// SNORD28 /// SNORD29 /// SNORD31 / Fold change vs veh, SNHG1 /// SNORD22 /// SNORD25 /// SNORD26 /// SNORD27 /// SNORD28 /// SNORD29 /// SNORD31 / Fold change (Aza/veh), C12orf56 (ProbeSet 11735607_a_at) / Fold change (ACY-1035/veh), C12orf56 (ProbeSet 11735607_a_at) / Fold change (Aza/veh), FGFR1OP (ProbeSet 11751329_s_at) / Fold change (ACY-1035/veh), FGFR1OP (ProbeSet 11751329_s_at) / Fold change (Aza/veh), VPS36 (ProbeSet 11739960_a_at) / Fold change (ACY-1035/veh), VPS36 (ProbeSet 11739960_a_at) / RFU SYPL1 (11715823_x_at) / Fold change /veh SYPL1 (11715823_x_at) / RFU IGFBP7 (11715501_s_at) / Fold change /veh IGFBP7 (11715501_s_at) / RFU REEP3 (11722064_at) / Fold change /veh REEP3 (11722064_at) / RFU IGLL1 (11728026_x_at) / Fold change /veh IGLL1 (11728026_x_at): dose or concentration left out as unconfirmed",
  "details": "ProbeSet 11741123_x_at; LIST D",
  "data": [
    {"smiles": "Nc1ccc(-c2cccs2)cc1NC(=O)c1ccc2c(c1)cc(C1CC1)n2CCN1CCOCC1", "note": "[ACY-1035]", "values": [
      {"measurement": "RFU, ADK", "value": 253.83, "unit": "RFU"}
    ]}
  ]
}
